Patent US20240287351A1, “ENGINEERED MULTIFUNCTIONAL PARTICLES AND THIN DURABLE COATINGS COMPRISING CROSSLINKED SILANE POLYMERS CONTAINING UREA” (Bar-Ilan University, priority 2020, published 2024)

System: microorganisms
Experiment: Antimicrobial activity after organic materials and repetitive microbial loading cycles
Settings: after exposure to organic materials and repetitive microbial loading cycles

**Q.** Which “retention of antimicrobial activity” value does the source give for `[Na+].[O-]Cl` [bleach, sodium hypochlorite] here?
**A.** losing its biocidal activity rapidly
